Common to all, as to type: physicochemical
A short description of data set [1]: Form conversion under ambient or vacuum drying conditions.
Data set [2] can be described thus: Dynamic vapor sorption (DVS). As to conditions: for Post-DVS XRPD analysis (form): after exposure to elevated humidity; for moisture uptake by DVS: at 90% RH. Here is the method:
Approximately 10-20 mg of sample was placed into a mesh vapor sorption balance pan and loaded into a DVS-1 dynamic vapor sorption balance by Surface Measurement Systems. […] After completion of the sorption cycle, the sample was dried using the same procedure to 0% RH and then a second sorption cycle back to 40% RH. Two cycles were performed. The weight change during the sorption/desorption cycles were plotted, allowing for the hygroscopic nature of the sample to be determined. XRPD analysis may be then carried out on any solid retained.

Data set [3] is described as follows: Gravimetric vapor sorption (GVS). On the procedure: Approximately 10-20 mg of sample was placed into a mesh vapor sorption balance pan and loaded into an IGASorp Moisture Sorption Analyzer balance by Hiden Analytical. The sample was subjected to a ramping profile from 40-90% relative humidity (RH) at 10% increments, maintaining the sample at each step until a stable weight had been achieved (98% step completion). After completion of the sorption cycle, the sample was dried using the same procedure to 0% RH, and finally taken back to the starting point of 40% RH. Two cycles were performed. The weight change during the sorption/desorption cycles were plotted, allowing for the hygroscopic nature of the sample to be determined.

A short description of a further data set: Aqueous solubility. The note with it: water, thermodynamic from solid, solvent addition method.
Data set [4] in a line: Acetone solubility. As to conditions: organic solvent or mixture, thermodynamic from solid, partial dissolution, solvent addition method.
Data set [5] can be described thus: Acetone solubility. As to conditions: form of residual solid; amorphous input: Form 2 residual solid with additional peaks. Here is the method: Aqueous and acetone solubility was carried out using 3-10 mg of material, depending on availability, and slurrying in 150-200 μL of acetone or 300 μL of deionized water. The samples were agitated at ambient temperature then filtered by centrifugation (0.22 μm nylon filter) after ca. 24 hours and the solids analyzed by XRPD as damp solids. The filtrates were analyzed by HPLC for concentration determination. The water solubility was too low for detection using the current analytical method.

A short description of data set [6]: Accelerated storage conditions (75% RH/40° C. for 72 hours), XRPD.
The nature of data set [7]: Hydration studies in water/acetone mixtures. The note with it: for Hydration study result (solid by XRPD): 5 days; for solid obtained in hydration study: the other experiments (remaining water contents/temperatures). Here is the method:
Hydration experiments were performed at 25° C. and 50° C. in water/acetone mixtures with the following water content (volume %): 2%, 5%, and 20%. The samples were prepared by adding 250 μL of the water/acetone mixture to 15 mg of the salt sample. The samples were stirred at 25° C. or at 50° C. After 2 days, the samples were inspected for the presence of solid. If solid was not observed, additional salt material was added to the dissolved samples. Samples were stirred for an additional 3 days. After 5 days, samples were filtered and the solid obtained was analyzed by XRPD.

The nature of data set [8]: Karl Fischer coulometric titration (KF) water content. On the procedure: Approximately 10-30 mg of solid material was accurately weighed into a vial. The solid was then manually introduced into the titration cell of a Mettler Toledo C30 Compact Titrator. The vial was back-weighed after the addition of the solid and the weight of the added solid entered on the instrument. Titration was initiated once the sample had fully dissolved in the cell. The water content was calculated automatically by the instrument as a percentage and the data printed.

Data set [9] in a line: Salt disproportionation studies (slurry in deionized water). The note with it: 48 hours. Here is the method:
Samples of salts described herein were prepared for disproportionation studies. Approximately 15 mg of the salt material was suspended in 4 mL of deionized water at ambient temperature (ca. 22° C.). The slurry of the salt was shaken at ambient temperature and analyzed after: 1 h, 24 h, and 48 h. Each sample was filtered using a centrifuge filter. The solid was analyzed by XRPD. pH measurements were performed for the solution (three pH measurements were carried out for each sample and the average pH was calculated).

The nature of data set [10]: 7 day stability testing, open vials at 40° C./75% RH, ambient and 80° C. As to conditions: 40° C./75% RH, 80° C., and ambient temperature, 1 week.
Data set [11] can be described thus: Thermodynamic solubility pH measurements. The note with it: respective buffer, 25° C., 48 hours. Here is the method:
After 2 hours at 25° C., the pH of each slurry was measured and the pH was adjusted, where required. After 24 hours at 25° C., the pH of each slurry was measured and the pH was adjusted, where required. After 48 hours at 25° C., the slurries were separated by centrifugation. The solids were analyzed by XRPD, while the pH of the separated liquors were also measured.

Where [12] appears, read: 2% and 5% water in acetone, 25° C.
[13] abbreviates: 2% water in water/acetone, 25° C., Form = form of the same salt.
[14] abbreviates: 2% water in water/acetone, 50° C., Form = form of the same salt.
The mark [15] stands for this setting: 5% water in water/acetone, 25° C., Form = form of the same salt.
Setting [16] is: 5% water in water/acetone, 50° C., Form = form of the same salt.
Setting [17] is: 20% water in water/acetone, 25° C.
The mark [18] stands for this setting: 20% water in water/acetone, 50° C.

A value given as a limit tells only on which side of the number the result lay.

In the case of `O=C(c1ccc(Oc2ccccc2)cc1Cl)c1c[nH]c2ncnc(N[C@@H]3CC[C@@H](CO)OC3)c12.O=S(=O)(O)c1cccc2c(S(=O)(=O)O)cccc12` [1,5-naphthalene disulfonic acid Form 2], the “form conversion under vacuum drying conditions” value in data set [1] is listed as “converts 1,5-naphthalene disulfonic acid Form 4”.

`O=C(c1ccc(Oc2ccccc2)cc1Cl)c1c[nH]c2ncnc(N[C@@H]3CC[C@@H](CO)OC3)c12` [amorphous Compound A, (2-chloro-4-phenoxyphenyl)(4-(((3R,6S)-6-(hydroxymethyl)tetrahydro-2H-pyran-3-yl)amino)-7H-pyrrolo[2,3-d]pyrimidin-5-yl)methanone]: in data set [2], the “hygroscopic nature by DVS” value was “hygroscopic”, the “Post-DVS XRPD analysis (form)” value was “remain amorphous” and the “moisture uptake by DVS” value is 3.9%. In data set [3] (cell wraps: Remained | unchanged), the “XRPD post GVS” value is reported as “Remained”. In addition, the “GVS (hygroscopicity)” value in data set [3] (summary Table 11) turned out to be 3.9% uptake. In the data set “Aqueous solubility”, this compound registered a Solubility of less than 10 mg/mL. Besides, the Solubility in the data set “Acetone solubility [4]” is no less than 16 mg/mL. Moreover, the “Acetone solubility: residual solid” value in “Acetone solubility [5]” was “(Form 2 residual”.

On to `Br.O=C(c1ccc(Oc2ccccc2)cc1Cl)c1c[nH]c2ncnc(N[C@@H]3CC[C@@H](CO)OC3)c12` [hydrobromide Form 1], for which the “Post-DVS XRPD analysis (form)” value in data set [2] is listed as “no change in form from the input material”. The “moisture uptake by DVS” value in data set [2] was “ca. 7.0%”. The “stability under accelerated storage conditions (XRPD)” value in [6] is recorded as “stable”. Moreover, the “solid obtained in hydration study (XRPD)” value in [7] (setting [12]) is reported as “recovered”; in data set [7] (2% water in acetone, 50° C.), “potentially new form”. Further, the “Hydration study result (solid by XRPD)” value in data set [7] (setting [13]) is recorded as “Form 1”; in data set [7] (setting [14]), “low crystallinity”; in [7] (setting [15]), “Form 1”; in data set [7] (setting [16]), “Gum”; in data set [7] (setting [17]), “Gum”; in data set [7] (setting [18]), “Gum”. Moreover, the “solid obtained in hydration study” value in data set [7] is “gum”. Further, the “KF moisture (water) content” value in data set [8] is reported as 7.39%. In addition, in data set [9], the “XRPD after salt disproportionation study, 48 hours” value was “no change from the input material”. For the same compound, in data set [10], the “XRPD analysis after storage for 1 week” value is “no change in form from the input material”. Moreover, the “XRPD after thermodynamic solubility studies” value in data set [11] was “no change from the input material”.

For `Cl.O=C(c1ccc(Oc2ccccc2)cc1Cl)c1c[nH]c2ncnc(N[C@@H]3CC[C@@H](CO)OC3)c12` [hydrochloride Form 1], the “form conversion under ambient conditions” value in data set [1] (ambient conditions) is given as “gradually converts to hydrochloride Form 2”.

In the case of `O=C(O)C(=O)O.O=C(c1ccc(Oc2ccccc2)cc1Cl)c1c[nH]c2ncnc(N[C@@H]3CC[C@@H](CO)OC3)c12` [oxalate Form 1], the “form conversion under vacuum drying conditions” value in data set [1] is reported as “converts to oxalate Form 5”.

With `O=C(c1ccc(Oc2ccccc2)cc1Cl)c1c[nH]c2ncnc(N[C@@H]3CC[C@@H](CO)OC3)c12.O=P(O)(O)O` [phosphate Form 1], the “Post-DVS XRPD analysis (form)” value in data set [2] is on record as “no change in form from the input material”. The “moisture uptake by DVS” value in data set [2] was “ca. 3.2%”. In addition, the “stability under accelerated storage conditions (XRPD)” value in data set [6] is on record as “stable”. The “solid obtained in hydration study (XRPD)” value in data set [7] (setting [12]) is reported as “recovered”; in data set [7] (2% water in acetone, 50° C.), “potentially new form”. The “Hydration study result (solid by XRPD)” value in [7] (setting [13]) is “Form 1”; in data set [7] (setting [14]), “Form 1”; in data set [7] (setting [15]) it was “Form 1”; in data set [7] (setting [16]), “Form 6”; in [7] (setting [17]), “Gum”; in data set [7] (setting [18]), “Gum”. Also, the “solid obtained in hydration study” value in data set [7] was “gum”. Besides, the “KF moisture (water) content” value in data set [8] came to 3.74%. The “XRPD after salt disproportionation study, 48 hours” value in data set [9] was “no change from the input material”. In data set [10], the “XRPD analysis after storage for 1 week” value is “no change in form from the input material”. For the same compound, in data set [11], the “XRPD after thermodynamic solubility studies” value is given as “no change from the input material”.

These data come from patent US10975087B2, “Solid forms of tetrahydropyranyl amino-pyrrolopyrimidinone compounds” (ArQule, Inc., priority 2018, dated 2021).
